{
  "source": "patent US9206236B2",
  "about": "“Peptides for treating cancer” (Gene Signal International SA, priority 2010, dated 2015)",
  "key": {"[1]": {"assay": "Body weight and toxicity of mice bearing NCI-H460 tumors (Example 3)", "type": "in vivo", "description": "All experiments were reviewed by the Genopole's institutional animal care and use committee and were performed in accordance with institutional guidelines for animal care. Female BALB/c nu/nu mice (n=30) were used at 5-6 weeks of age. The animals were housed in laminar air-flow cabinets under pathogen-free conditions with a 12 h light/12 h dark schedule, and fed autoclaved standard chow and water ad libitum. […] Tumor cells (10^7 cells in 200 μl of HBSS) were injected subcutaneously into the right flanks of mice. […] At tumor volume about 150 mm^3, animals were randomized, and separated into five groups of five animals. Control mice (group 1) were intraperitoneally injected with vehicle (10% DMSO in buffer saline) every day. GS-0 was dissolved in vehicle and intraperitoneally injected (group 2) every day (12 injections). GS-2 was dissolved in vehicle and intraperitoneally injected (group 3) every day (12 injections). Tumor volume and body weight were measured every other day over the treatment period (12 days)."}, "[2]": {"molecular_target": "T1, recruitment of the regulatory subunit (p85) of the enzyme PI-3K by IRS-1 (Homo sapiens, UniProt P27986)", "T1 construct": "endogenous in cells; host or cells: human microvascular endothelial cells (HMEC)", "T1 sequence (P27986 whole entry)": "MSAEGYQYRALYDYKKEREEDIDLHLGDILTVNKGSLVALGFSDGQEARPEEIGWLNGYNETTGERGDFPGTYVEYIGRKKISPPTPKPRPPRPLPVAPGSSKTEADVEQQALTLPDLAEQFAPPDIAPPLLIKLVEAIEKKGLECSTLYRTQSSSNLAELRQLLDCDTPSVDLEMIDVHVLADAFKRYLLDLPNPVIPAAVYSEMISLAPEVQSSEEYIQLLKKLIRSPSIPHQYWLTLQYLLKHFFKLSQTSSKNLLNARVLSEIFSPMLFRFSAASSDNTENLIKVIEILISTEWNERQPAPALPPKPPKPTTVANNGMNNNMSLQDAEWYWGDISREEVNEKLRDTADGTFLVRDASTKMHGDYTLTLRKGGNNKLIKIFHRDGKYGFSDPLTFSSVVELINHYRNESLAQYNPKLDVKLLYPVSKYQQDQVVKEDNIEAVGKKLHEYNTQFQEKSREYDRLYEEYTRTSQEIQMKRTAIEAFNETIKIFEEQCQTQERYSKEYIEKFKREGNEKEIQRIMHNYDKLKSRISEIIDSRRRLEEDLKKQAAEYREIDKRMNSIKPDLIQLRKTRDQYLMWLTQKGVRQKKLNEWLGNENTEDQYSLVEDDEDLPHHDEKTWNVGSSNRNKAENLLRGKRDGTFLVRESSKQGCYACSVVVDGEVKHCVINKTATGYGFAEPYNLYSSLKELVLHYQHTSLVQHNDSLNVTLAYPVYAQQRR", "assay": "Recruitment of p85 of PI-3K by IRS-1 (IRS-1 immunoprecipitation, anti-p85 immunoblot) in HMEC", "type": "cell-based", "details": "final concentration of peptide 500 μg/ml", "description": "Human EC grown in EGM-2MV (80% confluence) were incubated with the peptides of the invention or vehicle for the indicated time, washed three times in cold PBS and directly lysed in 2 ml of ice-cold lysis buffer (10 mM Tris pH 7.5, 150 mM NaCl, 1 mM PMSF, 0.5 μg/ml leupeptin, 1 μg/ml pepstatin A, and 1 μg/ml aprotinin) by incubation for 30 min at 4° C. Cell lysate were spun at […] for 10 min, insoluble materials were discarded, and protein contents measured by Bradford assay of supernatants were adjusted. Cell lysate (1 ml) was precleared with 25 μl of protein G-plus agarose beads (Santa Cruz) for 30 min, and proteins were then immunoprecipitated by adding 2 μg of the indicated antibody and incubated for 1 hr. The immunocomplex was pulled down with protein G-plus agarose beads and the beads were washed three times with lysis buffer. The immunoprecipitates were separated by NuPAGE® 4-12% Bis-Tris gel electrophoresis under reducing conditions, transferred to PVDF membrane (Novex System, Invitrogen), and the membrane was blocked with 5% (w/v) non-fat milk in TBS containing 0.1% v/v Tween-20 for 1 hr.\nAs it is widely admitted that the tyrosine phosphorylation of IRS-1 leads to its association with the regulatory subunit (p85) of the enzyme PI-3K, and this event lead to important increases in the enzymatic activity of this later, we have investigated the influence of the tyrosine phosphorylated and non phosphorylated peptides onto the recruitment of the regulatory subunit (p85) of the enzyme PI-3K by IRS-1. For that, human microvascular endothelial cells (HMEC) were incubated with the tyrosine phosphorylated and non phosphorylated peptides (final concentration of peptide 500 μg/ml) followed by cells lysis and immuoprecipitation of the protein IRS-1. The immunoprecipitates were then resolved in SDS-PAGE, proteins were transferred to membranes, and the membranes were immunoblotted with an anti-p85 PI3K monoclonal antibody."}, "[3]": {"system": "NCI-H460 tumors", "assay": "NCI-H460 tumor xenograft in nude mice, tumor volume (Example 3)", "type": "in vivo", "description": "H460 cell line has cytology compatible with human Non-Small Cell Lung Cancer (NSCL). Cells were grown in MEM medium containing 10% FCS at 37° C., 5% CO2 humidified atmosphere. The absence of mycoplasms was confirmed by using the PCR Mycoplasma Detection kit (Takara). All experiments were reviewed by the Genopole's institutional animal care and use committee and were performed in accordance with institutional guidelines for animal care. Female BALB/c nu/nu mice (n=30) were used at 5-6 weeks of age. The animals were housed in laminar air-flow cabinets under pathogen-free conditions with a 12 h light/12 h dark schedule, and fed autoclaved standard chow and water ad libitum. The NCI-H460 human NSCL cell line was obtained from American Type Culture Collection (ATCC) were grown in RPMI medium 1640 supplemented with 1 μM sodium pyruvate. Tumor cells (10^7 cells in 200 μl of HBSS) were injected subcutaneously into the right flanks of mice. After engraftment, tumor volume was measured by Vernier callipers, and calculated as described in Balsam A et al. (Balsari A et al. (2004) Eur J Cancer 40: 1275-1281). At tumor volume about 150 mm^3, animals were randomized, and separated into five groups of five animals. Control mice (group 1) were intraperitoneally injected with vehicle (10% DMSO in buffer saline) every day. GS-0 was dissolved in vehicle and intraperitoneally injected (group 2) every day (12 injections). GS-2 was dissolved in vehicle and intraperitoneally injected (group 3) every day (12 injections). Tumor volume and body weight were measured every other day over the treatment period (12 days). GS-2 as well as the control peptide GS-0 were solubilized in DMSO and the resulting solutions were diluted 10 times with phosphate buffer saline (PBS) to obtain a concentration of 1 mg of peptide/ml of 10% DMSO in PBS. At this concentration, all peptides were soluble in 10% DMSO."}, "[4]": {"system": "human microvascular endothelial cells (HMEC)", "assay": "In vitro angiogenesis assay (Matrigel tube formation)", "type": "cell-based", "details": "500 μg/ml final concentration of peptide, images at 18 h", "description": "Angiogenesis of human microvascular endothelial cells (HMEC) was induced in vitro using a Matrigel assay described by Al-Mahmood et al (2009, JPET, 2009; 58:933). This method is based on the differentiation of endothelial cells to form capillary structures on a Matrigel Matrix. Matrigel is prepared the Engelbreth-Holm-Swarm (EHS) mouse tumor, which represents a complex mixture of basement membrane proteins including type IV collagen, entactin, proteo-heparan sulfate and other growth factors.\nBriefly, 250 μl of Matrigel were transferred to each well of a 24-well culture plate and incubated at 37° C. for 30 min to allow for the matrix solution to solidify. HMEC grown in complete growth medium EGM-2MV were harvested by trypsin, suspended in the same growth medium and 500 μl containing 70 000 cells were added on top of the solidified Matrigel in each well and in the presence or absence of peptide. Cells were maintained in a humidified atmosphere air containing 5% CO2 at 37° C. for 18-24 hrs. Endothelial tube formation was observed and photographed under an inverted light microscope.\nThe designed tyrosine phosphorylated and non phosphorylated peptides were tested for their influence onto the in vitro angiogenesis. The results of the in vitro angiogenesis assay were presented in FIG. 1, using HMEC and 500 μg/ml final concentration of each peptide."}},
  "data": [
    {"substance": "Ac-NYICMG-NH2 [GS-0, NYICMG, reference compound]", "values": [
      {"measurement": "toxicity and body weight loss during treatment", "setting": "[1]; 8 mg/kg intraperitoneally every day, 12 injections", "value": "No toxicity and no body weight loss"},
      {"measurement": "Mean body weight D1", "setting": "[1]; Table 3, 8 mg/kg i.p. daily, day 1, in g", "value": 20.91},
      {"measurement": "Mean body weight D3", "setting": "[1]; Table 3, 8 mg/kg i.p. daily, day 3, in g", "value": 21.37},
      {"measurement": "Mean body weight D5", "setting": "[1]; Table 3, 8 mg/kg i.p. daily, day 5, in g", "value": 21.65},
      {"measurement": "Mean body weight D7", "setting": "[1]; Table 3, 8 mg/kg i.p. daily, day 7, in g", "value": 21.81},
      {"measurement": "Mean body weight D9", "setting": "[1]; Table 3, 8 mg/kg i.p. daily, day 9, in g", "value": 22.52},
      {"measurement": "Mean body weight D11", "setting": "[1]; Table 3, 8 mg/kg i.p. daily, day 11, in g", "value": 22.76},
      {"measurement": "Mean body weight D13", "setting": "[1]; Table 3, 8 mg/kg i.p. daily, day 13, in g", "value": 22.36},
      {"measurement": "influence onto the recruitment of the regulatory subunit (p85) of PI3K by IRS-1", "setting": "[2]", "value": "no and/or negligible influence"},
      {"measurement": "influence on the in vivo growth of the tumor NCI-H460 (in words)", "setting": "[3]; 8 mg/kg i.p. daily for 12 days", "value": "no significant influence"},
      {"measurement": "mean tumor volume at the end of treatment", "setting": "[3]; 8 mg/kg i.p. daily for 12 days, n=5", "value": "1114.83 ± 534.50", "unit": "mm^3"},
      {"measurement": "Mean tumor volume D1", "setting": "[3]; Table 4, 8 mg/kg i.p. daily, day 1", "value": 123, "unit": "mm³"},
      {"measurement": "Mean tumor volume D3", "setting": "[3]; Table 4, 8 mg/kg i.p. daily, day 3", "value": 233, "unit": "mm³"},
      {"measurement": "Mean tumor volume D5", "setting": "[3]; Table 4, 8 mg/kg i.p. daily, day 5", "value": 335, "unit": "mm³"},
      {"measurement": "Mean tumor volume D7", "setting": "[3]; Table 4, 8 mg/kg i.p. daily, day 7", "value": 402, "unit": "mm³"},
      {"measurement": "Mean tumor volume D9", "setting": "[3]; Table 4, 8 mg/kg i.p. daily, day 9", "value": 553, "unit": "mm³"},
      {"measurement": "Mean tumor volume D11", "setting": "[3]; Table 4, 8 mg/kg i.p. daily, day 11", "value": 751, "unit": "mm³"},
      {"measurement": "Mean tumor volume D13", "setting": "[3]; Table 4, 8 mg/kg i.p. daily, day 13", "value": 1110, "unit": "mm³"},
      {"measurement": "in vitro angiogenesis-inhibitory activity", "setting": "[4]", "value": "have not and/or negligible in vitro angiogenesis-inhibitory activity"}
    ]}
  ]
}
